# Test results: patent US20120301433A1, “BACTERIOPHAGES EXPRESSING AMYLOID PEPTIDES AND USES THEREOF” (priority 2009, published 2012)
# Experiments:
# CsgA [1] = molecular target: T1, CsgA (Escherichia coli, UniProt P28307); assay type: biochemical; conditions: CsgA:inhibitor ratios, FIG. 9
# CsgA [2] = molecular target: T1, CsgA; conditions: 20-residue peptides on array
# CsgA [3] = molecular target: T1, CsgA; conditions: ThT fluorescence, FIG. 7E
# T1 sequence (P28307 21-151): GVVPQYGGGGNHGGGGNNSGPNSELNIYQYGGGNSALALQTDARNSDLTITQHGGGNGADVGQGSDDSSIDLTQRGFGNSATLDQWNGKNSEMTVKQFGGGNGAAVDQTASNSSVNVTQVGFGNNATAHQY
Compound,effect of small molecule inhibitors on curli amyloid fiber formation (in words) (CsgA [1]),fluorescence of labelled CsgA bound to peptide spot (in words) (CsgA [2]),nucleation of CsgA fiber assembly by plate-bound peptide (in words) (CsgA [3])
"C[C@@H]1[C@H](O)[C@@H](C)/C=C/C=C/C=C/C=C/C=C/C=C/C=C/[C@H](O[C@@H]2O[C@H](C)[C@@H](O)[C@H](N)[C@@H]2O)C[C@@H]2O[C@](O)(C[C@@H](O)C[C@@H](O)[C@H](O)CC[C@@H](O)C[C@@H](O)CC(=O)O[C@H]1C)C[C@H](O)[C@H]2C(=O)O [AmphB, Amphotericin B]",does not inhibit Curli assembly,,
COc1ccc(Nc2cc3c(cc2Nc2ccc(OC)cc2)C(=O)NC3=O)cc1 [DAPH-12],secetively inhibits Curli assembly,,
GTQKTAIVVQRQSQMAIRVT [CsgB130-149],,strongest signal,facilitated CsgA amyloid fiber formation with first-order kinetics
